# Measurements as given in PubChem BioAssay (NCI).
#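 96-well plates; 48 h exposure; 5 concentrations. Endpoints by linear interpolation between flanking doses. Not reached: highest tested concentration assigned. The concentration for full growth arrest is given as TGI.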
# What was measured:
# Test in all cases: growth of human tumour cells (NCI), 48 h
# UACC-62 melanoma = test system: UACC-62 melanoma
# SK-MEL-5 melanoma = test system: SK-MEL-5 melanoma
# EKVX NSCLC = test system: EKVX NSCLC
# MDA-MB-231 breast = test system: MDA-MB-231 breast
# SF-295 CNS = test system: SF-295 CNS
# OVCAR-8 ovarian = test system: OVCAR-8 ovarian
# DU-145 prostate = test system: DU-145 prostate
# SN12C renal = test system: SN12C renal
# M14 melanoma = test system: M14 melanoma
# A549 NSCLC = test system: A549 NSCLC
# TK-10 renal = test system: TK-10 renal
# OVCAR-5 ovarian = test system: OVCAR-5 ovarian
# MDA-MB-435 = test system: MDA-MB-435
# NCI-H226 lung = test system: NCI-H226 lung
# COLO 205 colon = test system: COLO 205 colon
# SF-539 CNS = test system: SF-539 CNS
# PC-3 prostate = test system: PC-3 prostate
# HCT-15 colon = test system: HCT-15 colon
# RXF 393 renal = test system: RXF 393 renal
# SK-MEL-2 melanoma = test system: SK-MEL-2 melanoma
# UACC-257 melanoma = test system: UACC-257 melanoma
# NCI-H460 lung = test system: NCI-H460 lung
# HT29 colon = test system: HT29 colon
# HOP-92 NSCLC = test system: HOP-92 NSCLC
# HS 578T breast = test system: HS 578T breast
# T-47D breast = test system: T-47D breast
# HCT-116 colon = test system: HCT-116 colon
# A498 renal = test system: A498 renal
# NCI-H522 lung = test system: NCI-H522 lung
# HL-60(TB) leukemia = test system: HL-60(TB) leukemia
# MDA-N = test system: MDA-N
# SW-620 colon = test system: SW-620 colon
# SNB-19 CNS = test system: SNB-19 CNS
# SF-268 CNS = test system: SF-268 CNS
# OVCAR-4 ovarian = test system: OVCAR-4 ovarian
# LOX IMVI melanoma = test system: LOX IMVI melanoma
# BT-549 breast = test system: BT-549 breast
# MOLT-4 leukemia = test system: MOLT-4 leukemia
# RPMI-8226 leukemia = test system: RPMI-8226 leukemia
# HOP-62 NSCLC = test system: HOP-62 NSCLC
# CAKI-1 renal = test system: CAKI-1 renal
# NCI-H23 lung = test system: NCI-H23 lung
# ACHN renal = test system: ACHN renal
# OVCAR-3 ovarian = test system: OVCAR-3 ovarian
# NCI/ADR-RES ovarian = test system: NCI/ADR-RES ovarian
# CCRF-CEM leukemia = test system: CCRF-CEM leukemia
# UO-31 renal = test system: UO-31 renal
# MALME-3M melanoma = test system: MALME-3M melanoma
# IGROV1 ovarian = test system: IGROV1 ovarian
# SNB-75 CNS = test system: SNB-75 CNS
# SK-OV-3 ovarian = test system: SK-OV-3 ovarian
# U251 CNS = test system: U251 CNS
# K-562 leukemia = test system: K-562 leukemia
# KM12 colon = test system: KM12 colon
# MCF7 breast = test system: MCF7 breast
# SK-MEL-28 melanoma = test system: SK-MEL-28 melanoma
# 786-0 renal = test system: 786-0 renal
# HCC-2998 colon = test system: HCC-2998 colon
smiles,measurement,setting,value
Cc1ccc2ccc(O)cc2c1,TGI,UACC-62 melanoma,> 100 µM
same,TGI,SK-MEL-5 melanoma,> 100 µM
same,TGI,EKVX NSCLC,> 100 µM
same,TGI,MDA-MB-231 breast,> 100 µM
same,TGI,SF-295 CNS,> 100 µM
same,TGI,OVCAR-8 ovarian,60.9 µM
same,TGI,DU-145 prostate,> 100 µM
same,TGI,SN12C renal,> 100 µM
same,TGI,M14 melanoma,> 100 µM
same,TGI,A549 NSCLC,> 100 µM
same,TGI,TK-10 renal,> 100 µM
same,TGI,OVCAR-5 ovarian,> 100 µM
same,TGI,MDA-MB-435,46.8 µM
same,TGI,NCI-H226 lung,> 100 µM
same,TGI,COLO 205 colon,> 100 µM
same,TGI,SF-539 CNS,> 100 µM
same,TGI,PC-3 prostate,52.9 µM
same,TGI,HCT-15 colon,> 100 µM
same,TGI,RXF 393 renal,> 100 µM
same,TGI,SK-MEL-2 melanoma,> 100 µM
same,TGI,UACC-257 melanoma,> 100 µM
same,TGI,NCI-H460 lung,> 100 µM
same,TGI,HT29 colon,> 100 µM
same,TGI,HOP-92 NSCLC,80.9 µM
same,TGI,HS 578T breast,> 100 µM
same,TGI,T-47D breast,> 100 µM
same,TGI,HCT-116 colon,> 100 µM
same,TGI,A498 renal,> 100 µM
same,TGI,NCI-H522 lung,42.4 µM
same,TGI,HL-60(TB) leukemia,52.8 µM
same,TGI,MDA-N,42.6 µM
same,TGI,SW-620 colon,> 100 µM
same,TGI,SNB-19 CNS,> 100 µM
same,TGI,SF-268 CNS,> 100 µM
same,TGI,OVCAR-4 ovarian,52 µM
same,TGI,LOX IMVI melanoma,> 100 µM
same,TGI,BT-549 breast,99.4 µM
same,TGI,MOLT-4 leukemia,55.9 µM
same,TGI,RPMI-8226 leukemia,66.4 µM
same,TGI,HOP-62 NSCLC,> 100 µM
same,TGI,CAKI-1 renal,> 100 µM
same,TGI,NCI-H23 lung,> 100 µM
same,TGI,ACHN renal,> 100 µM
same,TGI,OVCAR-3 ovarian,28.7 µM
same,TGI,NCI/ADR-RES ovarian,60.4 µM
same,TGI,CCRF-CEM leukemia,61.8 µM
same,TGI,UO-31 renal,67.1 µM
same,TGI,MALME-3M melanoma,> 100 µM
same,TGI,IGROV1 ovarian,57.3 µM
same,TGI,SNB-75 CNS,> 100 µM
same,TGI,SK-OV-3 ovarian,> 100 µM
same,TGI,U251 CNS,48.8 µM
same,TGI,K-562 leukemia,47.1 µM
same,TGI,KM12 colon,> 100 µM
same,TGI,MCF7 breast,> 100 µM
same,TGI,SK-MEL-28 melanoma,> 100 µM
same,TGI,786-0 renal,> 100 µM
same,TGI,HCC-2998 colon,46.8 µM
Cc1cn(C(=O)NC23CC4CC(CC(C4)C2)C3)c(=O)[nH]c1=O,TGI,UACC-62 melanoma,71.4 µM
same,TGI,SK-MEL-5 melanoma,> 100 µM
same,TGI,EKVX NSCLC,65.5 µM
same,TGI,MDA-MB-231 breast,61.3 µM
same,TGI,SF-295 CNS,> 100 µM
same,TGI,OVCAR-8 ovarian,> 100 µM
same,TGI,DU-145 prostate,> 100 µM
same,TGI,SN12C renal,> 100 µM
same,TGI,M14 melanoma,> 100 µM
same,TGI,A549 NSCLC,> 100 µM
same,TGI,TK-10 renal,> 100 µM
same,TGI,OVCAR-5 ovarian,> 100 µM
same,TGI,MDA-MB-435,> 100 µM
same,TGI,NCI-H226 lung,65.7 µM
same,TGI,COLO 205 colon,75.5 µM
same,TGI,SF-539 CNS,> 100 µM
same,TGI,PC-3 prostate,> 100 µM
same,TGI,HCT-15 colon,80.3 µM
same,TGI,RXF 393 renal,> 100 µM
same,TGI,SK-MEL-2 melanoma,76.3 µM
same,TGI,UACC-257 melanoma,> 100 µM
same,TGI,NCI-H460 lung,> 100 µM
same,TGI,HT29 colon,> 100 µM
same,TGI,HOP-92 NSCLC,> 100 µM
same,TGI,HS 578T breast,> 100 µM
same,TGI,T-47D breast,> 100 µM
same,TGI,HCT-116 colon,> 100 µM
same,TGI,HL-60(TB) leukemia,51.2 µM
same,TGI,MDA-N,> 100 µM
same,TGI,SW-620 colon,> 100 µM
same,TGI,SNB-19 CNS,> 100 µM
same,TGI,SF-268 CNS,> 100 µM
same,TGI,OVCAR-4 ovarian,> 100 µM
same,TGI,LOX IMVI melanoma,83 µM
same,TGI,BT-549 breast,86.1 µM
same,TGI,MOLT-4 leukemia,89.1 µM
same,TGI,RPMI-8226 leukemia,75.1 µM
same,TGI,HOP-62 NSCLC,> 100 µM
same,TGI,CAKI-1 renal,> 100 µM
same,TGI,NCI-H23 lung,> 100 µM
same,TGI,ACHN renal,94.1 µM
same,TGI,OVCAR-3 ovarian,> 100 µM
same,TGI,NCI/ADR-RES ovarian,86.6 µM
same,TGI,CCRF-CEM leukemia,74.5 µM
same,TGI,UO-31 renal,> 100 µM
same,TGI,MALME-3M melanoma,> 100 µM
same,TGI,SNB-75 CNS,> 100 µM
same,TGI,SK-OV-3 ovarian,> 100 µM
same,TGI,U251 CNS,> 100 µM
same,TGI,K-562 leukemia,> 100 µM
same,TGI,KM12 colon,> 100 µM
same,TGI,MCF7 breast,> 100 µM
same,TGI,SK-MEL-28 melanoma,> 100 µM
same,TGI,786-0 renal,> 100 µM
same,TGI,HCC-2998 colon,> 100 µM
CCOC(=O)C(NC(=O)c1ccccc1)(Nc1cc(C)on1)C(F)(F)F (centres undefined),TGI,UACC-62 melanoma,> 100 µM
same,TGI,SK-MEL-5 melanoma,> 100 µM
same,TGI,EKVX NSCLC,> 100 µM
same,TGI,MDA-MB-231 breast,56.2 µM
same,TGI,SF-295 CNS,> 100 µM
same,TGI,OVCAR-8 ovarian,> 100 µM
same,TGI,DU-145 prostate,> 100 µM
same,TGI,SN12C renal,> 100 µM
same,TGI,M14 melanoma,> 100 µM
same,TGI,A549 NSCLC,> 100 µM
same,TGI,TK-10 renal,> 100 µM
same,TGI,OVCAR-5 ovarian,> 100 µM
same,TGI,MDA-MB-435,> 100 µM
same,TGI,NCI-H226 lung,> 100 µM
same,TGI,COLO 205 colon,> 100 µM
same,TGI,SF-539 CNS,> 100 µM
same,TGI,PC-3 prostate,> 100 µM
same,TGI,HCT-15 colon,> 100 µM
same,TGI,RXF 393 renal,> 100 µM
same,TGI,SK-MEL-2 melanoma,> 100 µM
same,TGI,UACC-257 melanoma,> 100 µM
same,TGI,HT29 colon,> 100 µM
same,TGI,HOP-92 NSCLC,> 100 µM
same,TGI,HS 578T breast,> 100 µM
same,TGI,T-47D breast,> 100 µM
same,TGI,HCT-116 colon,> 100 µM
same,TGI,NCI-H522 lung,> 100 µM
same,TGI,HL-60(TB) leukemia,> 100 µM
same,TGI,MDA-N,> 100 µM
same,TGI,SW-620 colon,> 100 µM
same,TGI,SNB-19 CNS,> 100 µM
same,TGI,SF-268 CNS,> 100 µM
same,TGI,OVCAR-4 ovarian,> 100 µM
same,TGI,LOX IMVI melanoma,> 100 µM
same,TGI,BT-549 breast,> 100 µM
same,TGI,MOLT-4 leukemia,> 100 µM
same,TGI,RPMI-8226 leukemia,> 100 µM
same,TGI,HOP-62 NSCLC,> 100 µM
same,TGI,CAKI-1 renal,> 100 µM
same,TGI,NCI-H23 lung,> 100 µM
same,TGI,ACHN renal,> 100 µM
same,TGI,OVCAR-3 ovarian,> 100 µM
same,TGI,NCI/ADR-RES ovarian,> 100 µM
same,TGI,CCRF-CEM leukemia,> 100 µM
same,TGI,UO-31 renal,> 100 µM
same,TGI,MALME-3M melanoma,> 100 µM
same,TGI,IGROV1 ovarian,> 100 µM
same,TGI,SNB-75 CNS,> 100 µM
same,TGI,SK-OV-3 ovarian,> 100 µM
same,TGI,U251 CNS,> 100 µM
same,TGI,K-562 leukemia,> 100 µM
same,TGI,KM12 colon,> 100 µM
same,TGI,MCF7 breast,> 100 µM
same,TGI,SK-MEL-28 melanoma,> 100 µM
same,TGI,786-0 renal,> 100 µM
same,TGI,HCC-2998 colon,> 100 µM
